These results are taken from patent publication US8853228B2, “Heterocyclic analogs of propargyl-linked inhibitors of dihydrofolate reductase” (University of Connecticut, priority 2011, dated 2014).

Values after ≈ are worked out from the molar mass of the structure shown. Where two headings read alike, the source gives them in different places.

One data set addresses hDHFR (Homo sapiens (Human), UniProt P00374). The experiment in a line: hDHFR enzyme inhibition assay. The data set is classed as biochemical.
The target in a further data set is CgDHFR (Candida glabrata (strain ATCC 2001 / BCRC 20586 / JCM 3761 / NBRC 0622 / NRRL Y-65 / CBS 138) (Yeast) (Nakaseomyces glabratus), UniProt Q6FPH0). Kind of data set: biochemical. As to conditions: for Selectivity: Table 7, hDHFR vs CgDHFR.
The next data set in a line: Measured solubility. It counts as physicochemical. To be noted: in 200 mcg/mL HPMC and 0.2% DMSO.
Another data set has as its system C. glabrata. The experiment in a line: Antifungal assay (MIC, Alamar Blue). It counts as cell-based, Candida glabrata. As to conditions: for MIC (Cg) / MIC: C. glabrata; for MIC: Nakaseomyces glabratus.
The target in another data set is TgDHFR (Toxoplasma gondii, UniProt Q07422, DEL43-70). The experiment in a line: TgDHFR enzyme inhibition assay. The data set is classed as biochemical. The procedure: These residues were removed, leaving a five residue loop region characteristic of several other species of DHFR.
Enzyme and inhibitor were allowed to incubate for 5 min before adding dihydrofolate to initiate the reaction. Enzyme assays were performed at least four times. IC50 values and their standard deviations were calculated in the presence of varying concentrations of inhibitor near the IC50 concentration.

The next data set deals with ChDHFR-TS (Cryptosporidium hominis, UniProt Q27552). The experiment in a line: ChDHFR enzyme inhibition assay. It counts as biochemical.
In the next data set the test system is mammalian cell lines. To be noted: result in words.
Another data set deals with HepG2 cells. The experiment in a line: Mammalian cell toxicity, HepG2. The data set is classed as cell-based. To be noted: cytotoxicity, Table 6. The procedure: (§1) Adherent cell lines were maintained in Eagle's Minimal Essential Media (Sigma-Aldrich, St. Louis, Mo., USA) with 2 mM glutamine and Earle's Balanced Salt Solution (HyClone, Logan, Utah, USA) adjusted to contain 1.5 g/L sodium bicarbonate, 0.1 mM non-essential amino acids, 1 mM sodium pyruvate and 10% fetal calf serum. Fetal calf serum used in these assays was lot matched throughout. […] Toxicity assays were conducted between passages 10-20. Target compound toxicity was measured by incubating the test compound with the cells for 4 h, washing the cells and finally treating the cells with Alamar Blue. After 12-24 h, the fluorescence of the reduced dye was measured. Fluorescence intensity as a function of test compound concentration was fit to the Fermi equation, using non-linear least squares regression analysis, to estimate IC50 values.

Another data set addresses S. aureus DHFR (Staphylococcus aureus, UniProt P0A017). It counts as biochemical. The procedure: (§2) Enzyme inhibition assays were performed by monitoring the rate of NADPH oxidation by the DHFR enzyme at an absorbance of 340 nm. Assays were performed in the presence of saturating concentrations of NADPH and initiated with dihydrofolate. All assays were completed at 25° C. in a buffer containing 20 mM TES pH 7.0, 50 mM KCl, 10 mM 2-mercaptoethanol, 0.5 mM EDTA and 1 mg/mL BSA. Inhibition was measured at least three times with inhibitor concentrations near the IC50 value and the average IC50 value is reported with a standard deviation.

Another data set concerns MCF-10 cells. The experiment in a line: Mammalian cell toxicity, MCF-10. The data set is classed as cell-based, human. As to conditions: cytotoxicity. The procedure:
as §1

A further data set concerns S. aureus 13709 (MRSA). The experiment in a line: Antibacterial MIC, broth microdilution with Alamar Blue. The data set is classed as cell-based, Staphylococcus aureus. The procedure:
(§3) For susceptibility testing, 10 μL of glycerol stock was suspended in a 10 mL shake flask culture of chemically defined Isosensitest broth (Oxoid) supplemented with 2% w/v glucose. A sample of the shake flask culture was diluted to 1×10^6 cells/mL in media and added to 96-well test plates (100 μL per well) containing test compounds dispensed in DMSO (2 μL). After an incubation period (30° C.) determined from the strain specific doubling time, a 0.03% w/v aqueous solution of resazurin (10 μL) was added and the plates were allowed to incubate; each well was then scored for dye reduction.

A further data set deals with Streptococcus pyogenes. The data set is described as above. The data set is classed as cell-based. The procedure: as §3
For the next data set, the target named is S. pyogenes DHFR (Streptococcus pyogenes, UniProt Q9A091). The experiment in a line: S. pyogenes DHFR enzyme inhibition assay. The data set is classed as biochemical. The procedure:
as §2

Where [1] appears, read: Table 7, read-out: IC50 (hDHFR).
Setting [2] is: Table 7, read-out: IC50 (CgDHFR).
Where [3] appears, read: Table 4, read-out: IC50 (ChDHFR).
[4] abbreviates: average of at least three measurements.

hDHFR, sequence (P00374 whole entry): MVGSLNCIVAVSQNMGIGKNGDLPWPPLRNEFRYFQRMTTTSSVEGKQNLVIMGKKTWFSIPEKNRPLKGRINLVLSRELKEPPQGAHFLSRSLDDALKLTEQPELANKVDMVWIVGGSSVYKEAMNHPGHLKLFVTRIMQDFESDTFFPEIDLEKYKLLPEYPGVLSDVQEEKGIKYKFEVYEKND
ChDHFR-TS, sequence (Q27552 1-521): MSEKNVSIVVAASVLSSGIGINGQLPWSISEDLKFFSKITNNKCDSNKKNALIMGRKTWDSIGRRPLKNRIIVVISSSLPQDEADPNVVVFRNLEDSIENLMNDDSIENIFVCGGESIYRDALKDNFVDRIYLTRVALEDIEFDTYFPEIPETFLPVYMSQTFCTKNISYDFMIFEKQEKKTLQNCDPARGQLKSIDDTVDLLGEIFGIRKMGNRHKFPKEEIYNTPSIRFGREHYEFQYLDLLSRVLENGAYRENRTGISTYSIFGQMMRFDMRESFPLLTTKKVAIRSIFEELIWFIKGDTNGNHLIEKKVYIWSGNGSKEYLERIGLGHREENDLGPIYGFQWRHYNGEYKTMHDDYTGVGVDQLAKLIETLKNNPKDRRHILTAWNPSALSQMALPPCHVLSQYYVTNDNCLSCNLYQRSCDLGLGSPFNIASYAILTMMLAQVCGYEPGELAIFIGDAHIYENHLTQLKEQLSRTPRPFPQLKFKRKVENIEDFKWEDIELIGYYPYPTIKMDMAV
CgDHFR, sequence (Q6FPH0 1-217): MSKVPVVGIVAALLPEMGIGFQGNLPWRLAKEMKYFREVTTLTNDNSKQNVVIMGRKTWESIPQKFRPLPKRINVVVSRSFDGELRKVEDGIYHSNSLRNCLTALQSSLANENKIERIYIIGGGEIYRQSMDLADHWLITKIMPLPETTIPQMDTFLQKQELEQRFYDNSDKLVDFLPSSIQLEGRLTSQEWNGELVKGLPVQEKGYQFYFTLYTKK
S. pyogenes DHFR, sequence (Q9A091 1-165): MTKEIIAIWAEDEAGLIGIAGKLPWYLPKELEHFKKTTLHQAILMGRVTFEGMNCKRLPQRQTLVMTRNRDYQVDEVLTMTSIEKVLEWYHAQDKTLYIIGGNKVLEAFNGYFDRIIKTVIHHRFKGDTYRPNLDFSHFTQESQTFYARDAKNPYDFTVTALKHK
TgDHFR, sequence (Q07422 71-250, added parts left off, stated change not applied): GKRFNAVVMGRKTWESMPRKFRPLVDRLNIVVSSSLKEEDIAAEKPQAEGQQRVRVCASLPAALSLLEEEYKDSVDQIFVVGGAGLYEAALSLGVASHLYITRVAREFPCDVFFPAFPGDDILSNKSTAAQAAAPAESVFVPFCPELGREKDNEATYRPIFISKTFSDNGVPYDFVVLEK

As usually defined, the IC50 is the concentration needed to halve the response being measured. As a reminder, the Solubility is how much of the substance goes into solution per volume. In the case of `CCc1nc(N)nc(N)c1C#CC(C)c1cc(OC)cc(N2CCOCC2)c1` (stereo not shown) [Compound 153], the figures for the IC50 at hDHFR (setting [1]) and at CgDHFR (setting [2]) were 0.25 ± 0.004 µM and 0.022 ± 0.002 µM, respectively. Moreover, the Selectivity at CgDHFR was determined as 11 ± 1. The Solubility in the data set “Measured solubility” amounted to 80 µg/mL (≈ 210 µM). Moreover, the “MIC (Cg)” value against C. glabrata (YM media) was determined as 12 µg/mL (≈ 31.5 µM).

Usually MIC stands for the lowest concentration that inhibits growth of the organism. Consider `COc1cc(CC#Cc2c(C)nc(N)nc2N)cc(OC)c1OC` [Compound 5, 6-methyl-5-[3-(3,4,5-trimethoxyphenyl)prop-1-yn-1-yl]pyrimidine-2,4-diamine], for which the IC50 at hDHFR (Table 3, read-out: hDHFR IC50) is 0.4 µM; at CgDHFR (IC50 against CgDHFR), ≤ 0.025 µM; on CgDHFR (Table 3, read-out: CgDHFR IC50), 0.017 µM; against TgDHFR it was < 100 µM; on ChDHFR-TS (IC50 against ChDHFR), < 100 µM. Further, the MIC in the data set on C. glabrata (Inact: not active at 2 mM (~600 μg/mL), read-out: Antifungal activity MIC) is 20 µg/mL (≈ 60.9 µM). Also, the “antifungal properties against C. glabrata” value in the data set with C. glabrata (result in words) was “exhibited antifungal properties”.

Take `COc1cc(-c2ccccc2)cc(C(C)C#Cc2c(C)nc(N)nc2N)c1` (racemic) [Compound 139, 5-[3-(5-methoxy-biphenyl-3-yl)but-1-yn-1-yl]-6-methylpyrimidine-2,4-diamine]: the IC50 at ChDHFR-TS (setting [3]) was 0.0018 µM. The Solubility in the data set “Measured solubility” (aqueous with cosolvent or surfactant or cyclodextrin, kinetic from dmso stock, read-out: Solubility) amounted to 20 µg/mL (≈ 55.8 µM). Also, the MIC with C. glabrata (YM media, read-out: MIC (Cg)) stood at 11 µg/mL (≈ 30.7 µM).

For `COc1cc(-c2c(C(C)C)cccc2C(C)C)ccc1C(C)C#Cc1c(C)nc(N)nc1N` (stereo not shown) [Compound F26I, 5-[3-(3-methoxy-2′6′-diisopropylbiphenyl-4-yl)but-1-yn-1-yl]-6-methylpyrimidine-2,4-diamine], the IC50 at hDHFR (Table 4, read-out: IC50 (hDHFR)) was found to be 4.2 ± 0.0001 µM; at ChDHFR-TS (setting [3]), 0.016 µM. In the data set on mammalian cell lines, the mammalian cell toxicity entry was “display mammalian cell toxcity”. Also, the “Selectivity Ratio (IC50 ChDHFR/IC50 hDHFR)” value on ChDHFR-TS (Table 4) came to 262.

For the compound `COc1cc(C(C)C#Cc2c(C)nc(N)nc2N)cc(N2CCNCC2)c1` (stereo not shown) [Compound 159], the IC50 on hDHFR (setting [1]) turned out to be 0.27 ± 0.046 µM; at CgDHFR (setting [2]), 0.143 ± 0.01 µM. Also, at CgDHFR, the Selectivity is 1.9 ± 0.4. The compound further came in with a Solubility in the data set “Measured solubility” of 60 µg/mL (≈ 164 µM). In addition, the “MIC (Cg)” value in the data set on C. glabrata (YM media) was “Inact”.

Consider `COc1cc(C(C)C#Cc2c(C)nc(N)nc2N)cc(N2CCOCC2)c1` (stereo not shown) [Compound 152], for which the IC50 in the data set with HepG2 cells came out at 494 µM; on hDHFR (Table 5, average of at least three measurements, read-out: IC50 human), 0.4 ± 0.04 µM; at hDHFR (setting [1]), 0.4 ± 0.04 µM; at S. aureus DHFR (setting [4]), 0.029 ± 0.002 µM; on CgDHFR (setting [2]), 0.02 ± 0.003 µM; in the data set with MCF-10 cells (Table 6), 462 µM. Further, the IC50 is 462 µM with MCF-10 cells (Table 8) and 0.026 ± 0.004 µM against S. pyogenes DHFR (setting [4]). Besides, the “Selectivity (h/Sa)” value on S. aureus DHFR (IC50 (human)/IC50 (pathogen)) is 14. At CgDHFR, this compound came in with a Selectivity of 20 ± 4. Besides, the “Selectivity MRSA” value with S. aureus 13709 (MRSA) (IC50 (MCF10)/MIC (pathogen)) is on record as 159. In the data set on S. aureus 13709 (MRSA) (Table 6), the “MIC MRSA” value amounted to 2.9 µg/mL (≈ 7.89 µM). Moreover, in the data set with Streptococcus pyogenes (IC50 (MCF10)/MIC (pathogen)), the “Selectivity S. pyogenes” value is 19,250. Further, the “MIC S. pyogenes” value against Streptococcus pyogenes (Table 6) was found to be 0.024 µg/mL (≈ 0.0653 µM). For the same compound, in the data set “Measured solubility”, the Solubility is 80 µg/mL (≈ 218 µM). The “Selectivity (h/Sp)” value at S. pyogenes DHFR (IC50 (human)/IC50 (pathogen)) came to 15. Further, the “MIC (Cg)” value against C. glabrata (YM media) was found to be 12 µg/mL (≈ 32.7 µM). Besides, in the data set with C. glabrata (IC50 (MCF-10)/MIC (C. glabrata)), the “Selectivity Index” value is listed as 330. The “MIC C. glabrata” value in the data set with C. glabrata (IsoSensitest media supplemented with 2% glucose (thymidine-depleted)) stood at 1.4 µg/mL (≈ 3.81 µM).
